Source: article PMC10541198, “Specific quinone reductase 2 inhibitors reduce metabolic burden and reverse Alzheimer’s disease phenotype in mice” (The Journal of Clinical Investigation, 2023)
Values joined by “and” are separate entries in the source; they are usually repeats but may differ in a detail not shown here. Identical values can stand only once.

Columns and labels:
5xFAD mice = assay: Nesting in 5xFAD mice; assay type: in vivo, mouse; parameters: key to Sup. Fig. 5-2J, nesting: nesting score on a scale of 1 to 5
Description: Each home cage was given six identical portions of cotton wool tubes and 24 h later the nest made was photographed from above. The images were gi ven the names of the respective cages, whi ch were coded […]
(see ‘Blinding Measures for Animal Experiments’ section), and were analyzed by an experimenter that was blind to the conditions, groups and cage codes. […]
Analysis of the images was done blind, by an experimenter unaware of the experimental conditions or details, using Imaris (Bitplane) software. Surface reconstruction module was used to extract the data as volumes and / or si gnal intensities of the used markers (4-HNE, phospho- t au, amyloid β and Iba 1) .

4-HNE = assay: IHC of 4-HNE in 5xFAD brain sections; assay type: in vivo, mouse; parameters: 4-HNE upper quartile / 4-HNE lower quartile: unit not given here; conditions: for 4-HNE distribution (F test) / 4-HNE lower quartile / 4-HNE normalized volume (individual mice) / 4-HNE upper quartile: CA1, 5xFAD 1 month; for Figure 9A, IHC signal / Sup. Fig. 6-1A, IHC signal: individual animals; for 4-HNE vs vehicle: cortex, 5xFAD 1 month
Description: Following the behavioral experiments, we assessed brain pathologies associated with AD present in the 5xFAD mice ([37]). Therefore, 5 days following the last behavioral experiment, and 1 month after the start of YB-537 consumption, mice were sacrificed, and coronal brain sections were used for IHC. Since the CA1 region of the hippocampus is affected during AD pathogenesis ([37]), and this brain region is involved in the behavioral paradigms used here, we acquired images of CA1. This was done with an Olympus IX83 confocal microscope using the same settings, antibodies, and exposures in all mice. Images were analyzed using Imaris (Bitplane; see methods). For each mouse, 3 coronal sections were used per antibody. In each section, the same region of CA1 was acquired, using the same image frame size and resolution, at all possible depths of the section — using a Z-stack of the whole section — to allow measurement of the fluorescent antibody marker volume, which was normalized to the brain volume from which it was taken. First, we measured oxidative stress, as indicated by 4-HNE ([38]) (Abcam, ab48506).
Perfused and fixed brain slices were blocked with 10% normal donkey serum (DNS) and 0.2% triton (Sigma-Aldrich) in PBS. Antibodies, including 4-HNE (AbCam, ab48506), Iba1 (AbCam, ab5076), AT-8 (Thermo, MN1020), Amyloid β (AbCam, ab201060), diluted in PBS with 10% DNS, were incubated at 4°C overnight. Secondary antibodies including donkey-anti-goat Alexa Fluor 568 (AbCam, ab175704), donkey-anti-mouse Cy 5 (Jackson Immuno Research, 715-175-151), and donkey-anti-rabbit DyLight 488 (AbCam, ab98488) all diluted 1:500 in PBS with 1% BSA, were applied to the slices at RT for 2 hours the next day. Slices were mounted onto glass slides using DAPI containing Vectashield (H-1200). Images were taken using a confocal microscope (Olympus IX83). Three slices were used per mouse per antibody. Tiling images of the dorsal CA1 and cortex (Bregma: –1.58mm to –2.30mm) were taken using ×20 objective, acquiring a Z-stack of the whole section. Analysis of the images was done blind by an experimenter unaware of the experimental conditions or details, using Imaris (Bitplane) software. A surface reconstruction module was used to extract the data as volumes of the used markers (4-HNE, phospho-tau, amyloid β, GFAP, and Iba1). Marker volume and intensity were normalized to the corresponding brain volume. The normalized value was averaged for each triplicate and presented here. […]
Brains were then briefly removed and placed in chilled, 4% PFA for 48 h, f oll owe d by immersion in 30% sucrose in 0.1 M PBS for a furt her 48 h. Bra i ns wer e t h e n stored at -80°C, until t he y were sliced into 40µm coronal sections usinga Lei ca CM 1950cryostat. Sli ces were then washed x3 in PBS and bl oc ke d for 1 h at RT using 10% normal donkey serum (DNS) and 0.2% triton (Sigma-Aldrich) in PBS. Antibodies, including 4- HNE (1:500, AbCam, ab48506), Iba1 (1:2,000, AbCam, ab5076), GFAP (Abcam, ab53554), phospho- tau (1:1,000, Thermo, MN1020) and amyloid β (1:1,000, AbCam, ab201060) diluted in PBS with 10% DNS were incubated at 4°C overnight. The next day, the slices were washed x3 times in PBS, and secondary antibodies including donkey anti goat A l e x a Fluor 568 (AbCam, ab175704), donkey anti-mouse Cy 5 (Jackson Immuno Research, 715- 175- 151) and donkey anti-rabbit DyLight 488 (AbCam, ab98488) all diluted 1:500 in PBS with 1% BSA, were applied to the slices at RT for 2 h. Following the incubation, the slices were washed x3 times in PBS, mounted onto gl ass slides, were uniformly covered in DAPI containing Vectashield (H-1200) and coverslips were a dde d. […]

Q: With `Cc1ccc(-c2cn3cccc(C)c3n2)cc1S(=O)(=O)N1CCNCC1` [YB-537] as the compound, how does the Nest quality (5xFAD mice; 5xFAD 1 month, regardless of sex (Pearson r)) read?
A: significantly correlated to time under treatment

Q: What about the “Sup. Fig. 5-2J, nesting” value (5xFAD mice; Females, Day 0) of the same compound?
A: 2 and 3

Q: What about the “Sup. Fig. 5-2J, nesting” value (5xFAD mice; Females, Day 7) of the same compound?
A: 3 and 4

Q: What about the “Sup. Fig. 5-2J, nesting” value (5xFAD mice; Females, Day 14) of the same compound?
A: 4

Q: And the “Sup. Fig. 5-2J, nesting” value (5xFAD mice; Females, Day 21)?
A: 5 and 4

Q: What about the “Sup. Fig. 5-2J, nesting” value (5xFAD mice; Males + Females, Day 0) of the same compound?
A: 3 and 2

Q: And the “Sup. Fig. 5-2J, nesting” value (5xFAD mice; Males + Females, Day 7)?
A: 4 and 3

Q: What about the “Sup. Fig. 5-2J, nesting” value (5xFAD mice; Males + Females, Day 14) of the same compound?
A: 4 and 3

Q: And the “Sup. Fig. 5-2J, nesting” value (5xFAD mice; Males + Females, Day 21)?
A: 5 and 4

Q: What about the “Sup. Fig. 5-2J, nesting” value (5xFAD mice; Males, Day 0) of the same compound?
A: 2 and 3

Q: What about the “Sup. Fig. 5-2J, nesting” value (5xFAD mice; Males, Day 7) of the same compound?
A: 3 and 4

Q: And the “Sup. Fig. 5-2J, nesting” value (5xFAD mice; Males, Day 14)?
A: 4 and 3

Q: And the “Sup. Fig. 5-2J, nesting” value (5xFAD mice; Males, Day 21)?
A: 4 and 5

Q: And the “4-HNE distribution (F test)” value (4-HNE; Females)?
A: significantly changes distribution

Q: And the 4-HNE lower quartile (4-HNE; Females)?
A: 0.0409

Q: And the “4-HNE normalized volume (individual mice)” value (“4-HNE normalized volume” below) (4-HNE; Females)?
A: 0.0514 and 0.0389 and 0.0542 and 0.0413 and 0.0409 and 0.0433 and 0.0449

Q: And the 4-HNE upper quartile (4-HNE; Females)?
A: 0.0514

Q: What about the “4-HNE normalized volume” value (4-HNE; Males) of the same compound?
A: 0.0457 and 0.0892 and 0.0543 and 0.0490 and 0.0489 and 0.0313 and 0.0587 and 0.0539 and 0.0508

Q: And the “4-HNE normalized volume” value (4-HNE; Males + Females)?
A: 0.0514 and 0.0389 and 0.0542 and 0.0313 and 0.0587 and 0.0539 and 0.0508 and 0.0457 and 0.0892 and 0.0543 and 0.0490 and 0.0489 and 0.0413 and 0.0409 and 0.0433 and 0.0449

Q: What about the 4-HNE lower quartile (4-HNE; both sexes) of the same compound?
A: 0.0418

Q: What about the 4-HNE upper quartile (4-HNE; both sexes) of the same compound?
A: 0.0541

Q: What about the “4-HNE distribution (F test)” value (4-HNE; total population) of the same compound?
A: tends to alter distribution

Q: And the “Figure 9A, IHC signal” value (4-HNE; Cortex)?
A: 0.0148 and 0.0125 and 0.0103 and 0.0159 and 0.0128 and 0.0161 and 0.0104 and 0.0145 and 0.0118

Q: What about the “Sup. Fig. 6-1A, IHC signal” value (4-HNE; Females) of the same compound?
A: 0.0214 and 0.0277 and 0.0236 and 0.0333 and 0.0429 and 0.0318 and 0.0155

Q: What about the “Figure 9A, IHC signal” value (4-HNE; Hippocampus) of the same compound?
A: 0.0222 and 0.0139 and 0.0101 and 0.0187 and 0.0170 and 0.0160 and 0.0186 and 0.0121 and 0.0197

Q: What about the “Sup. Fig. 6-1A, IHC signal” value (4-HNE; Males + Females) of the same compound?
A: 0.0231 and 0.0112 and 0.0400 and 0.0392 and 0.0271 and 0.0198 and 0.0429 and 0.0318 and 0.0155 and 0.0214 and 0.0277 and 0.0236 and 0.0333 and 0.0301 and 0.0174 and 0.0275

Q: And the “Sup. Fig. 6-1A, IHC signal” value (4-HNE; Males)?
A: 0.0231 and 0.0112 and 0.0400 and 0.0392 and 0.0271 and 0.0198 and 0.0301 and 0.0174 and 0.0275

Q: And the 4-HNE vs vehicle (4-HNE; females)?
A: not significantly altered

Q: And the 4-HNE vs vehicle (4-HNE; males)?
A: not significantly altered

Q: What about the 4-HNE vs vehicle (4-HNE; total population) of the same compound?
A: not significantly altered
